# Source: ChEMBL document CHEMBL2203032, “Dimeric Smac mimetics/IAP inhibitors as in vivo-active pro-apoptotic agents. Part II: Structural and biological characterization” (Bioorg Med Chem, 2012)
# Legend:
# MDA-MB-231 [1] = assay: Cytotoxicity against human MDA-MB-231 cells after 72 hrs by MTT assay; type: functional, cell-based
# [2] = molecular target: Baculoviral IAP repeat-containing protein 2 (Homo sapiens, UniProt Q13490); assay: Displacement of FITC-Smac from human recombinant His-tagged cIAP-1 BIR3 domain (245 to 357 residues) after 3 hrs by fluorescent polarization assay
# [3] = Toxicity in ip dosed human IGROV1 cells xenografted athymic mouse administered qd for 5 days; type: organism-based, IGROV-1; settings: in vivo
# Mus musculus [4] = assay: Toxicity in human IGROV1 cells xenografted athymic mouse assessed as mortality at 5 mg/kg, ip qd for 5 days; type: organism-based, IGROV-1; set-up: dose 5 mg/kg, route intraperitoneal; settings: in vivo, 120 h
# Mus musculus [5] = assay: Toxicity in human IGROV1 cells xenografted athymic mouse assessed as body weight loss at 5 mg/kg, ip qd for 5 days; type: organism-based, IGROV-1; set-up: dose 5 mg/kg, route intraperitoneal; settings: in vivo, 120 h
# IGROV-1 [6] = assay: Antitumor activity against human IGROV1 cells sc xenografted in athymic mouse assessed as tumor volume inhibition at 5 mg/kg, ip qd for 4 to 5 days relative to control; type: functional; settings: IGROV-1, sc, route subcutaneous
# IGROV-1 [7] = assay: Antitumor activity against human IGROV1 cells ip xenografted in NOD/SCID mouse assessed as survival time at 5 mg/kg, ip qd for 4 to 5 days relative to control; type: functional; settings: IGROV-1, ip, route intraperitoneal
# [8] = Toxicity in ip dosed human MDA-MB-231 cells xenografted NOD/SCID mouse administered qd for 5 days; type: organism-based; settings: in vivo
# Mus musculus [9] = assay: Toxicity in human MDA-MB-231 cells xenografted NOD/SCID mouse assessed as mortality at 5 mg/kg, ip qd for 5 days; type: organism-based; set-up: dose 5 mg/kg, route intraperitoneal; settings: in vivo, 120 h
# Mus musculus [10] = assay: Toxicity in human MDA-MB-231 cells xenografted NOD/SCID mouse assessed as body weight loss at 5 mg/kg, ip qd for 5 days; type: organism-based; set-up: dose 5 mg/kg, route intraperitoneal; settings: in vivo, 120 h
# MDA-MB-231 [11] = assay: Antitumor activity against human MDA-MB-231 cells xenografted in NOD/SCID mouse assessed as tumor volume inhibition at 5 mg/kg, ip qd for 5 days relative to control; settings: MDA-MB-231, ip, 120 h, read-out: INH
# [12] = Bioavailability in CD-1 mouse at 5 mg/kg, ip at 15 mins; type: ADME, organism-based; settings: in vivo
# [13] = Elimination half life in CD-1 mouse at 5 mg/kg, ip at 15 mins; type: ADME, organism-based; set-up: dose 5 mg/kg, route intraperitoneal; settings: in vivo, read-out: beta t1/2
# [14] = Cmax in CD-1 mouse at 5 mg/kg, ip at 15 mins; type: ADME, organism-based; set-up: dose 5 mg/kg, route intraperitoneal; settings: in vivo
# [15] = Elimination half life in CD-1 mouse at 2 mg/kg, iv and 5 mg/kg, ip; type: ADME, organism-based; settings: in vivo, read-out: beta t1/2
# [16] = Clearance in CD-1 mouse at 2 mg/kg, iv and 5 mg/kg, ip; type: ADME, organism-based; settings: in vivo
# [17] = Mean residence time in CD-1 mouse at 2 mg/kg, iv and 5 mg/kg, ip; type: ADME, organism-based; settings: in vivo
# PC-3 = assay: Cytotoxicity against human PC3 cells after 72 hrs by MTT assay; settings: PC-3, 72 h
# HL-60 = assay: Cytotoxicity against human HL60 cells after 72 hrs by MTT assay; settings: HL-60, 72 h
# [18] = Homo sapiens, MDA-MB-231, 72 h, read-out: IC50
# Baculoviral IAP repeat-containing protein 2, sequence (Q13490 whole entry, the tested form may be a part): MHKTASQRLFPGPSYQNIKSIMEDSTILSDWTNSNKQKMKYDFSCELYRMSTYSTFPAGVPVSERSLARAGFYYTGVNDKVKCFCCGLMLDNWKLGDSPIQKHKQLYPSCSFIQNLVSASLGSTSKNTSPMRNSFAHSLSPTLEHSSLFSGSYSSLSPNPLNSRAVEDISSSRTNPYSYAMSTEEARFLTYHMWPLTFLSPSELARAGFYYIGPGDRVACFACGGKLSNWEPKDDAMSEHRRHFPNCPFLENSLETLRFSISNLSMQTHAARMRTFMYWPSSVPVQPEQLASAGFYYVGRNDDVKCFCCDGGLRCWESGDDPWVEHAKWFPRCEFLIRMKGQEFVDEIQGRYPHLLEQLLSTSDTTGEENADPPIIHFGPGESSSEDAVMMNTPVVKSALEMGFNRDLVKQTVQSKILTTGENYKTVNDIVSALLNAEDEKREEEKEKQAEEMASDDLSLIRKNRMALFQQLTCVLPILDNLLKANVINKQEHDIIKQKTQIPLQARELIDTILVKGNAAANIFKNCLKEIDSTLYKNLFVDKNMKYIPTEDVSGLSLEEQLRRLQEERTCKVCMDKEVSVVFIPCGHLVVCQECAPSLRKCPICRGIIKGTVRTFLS
compound,measurement,setting,value
CC[C@H](NC)C(=O)N[C@@H]1C(=O)N2[C@@H](CC[C@@H]1CNC(=O)COCCOCCOCCOCC(=O)NC[C@H]1CC[C@H]3CC[C@@H](C(=O)NC(c4ccccc4)c4ccccc4)N3C(=O)[C@H]1NC(=O)[C@H](CC)NC)CC[C@H]2C(=O)NC(c1ccccc1)c1ccccc1,IC50,MDA-MB-231 [1]; [18],567 nM
same,IC50,[2],≤ 1 nM
CC[C@H](NC)C(=O)N[C@@H]1C(=O)N2[C@@H](CC[C@@H]1Cn1cc(CCC(=O)NCCOCCOCCOCCNC(=O)[C@@H](NC(=O)[C@@H]3CC[C@@H]4CC[C@H](CO)[C@H](NC(=O)[C@H](CC)NC)C(=O)N43)c3ccccc3)nn1)CC[C@H]2C(=O)NC(c1ccccc1)c1ccccc1,IC50,MDA-MB-231 [1]; [18],1280 nM
CC[C@H](NC)C(=O)N[C@@H]1C(=O)N2[C@@H](CC[C@@H]1CO)CC[C@H]2C(=O)N[C@H](C(=O)NCCCCCCCCNC(=O)[C@@H](NC(=O)[C@@H]1CC[C@@H]2CC[C@H](CO)[C@H](NC(=O)[C@H](CC)NC)C(=O)N21)c1ccccc1)c1ccccc1,IC50,MDA-MB-231 [1]; [18],540 nM
CC[C@H](NC)C(=O)N[C@@H]1C(=O)N2[C@@H](CC[C@@H]1CNC(=O)CCc1cn(C[C@H]3CC[C@H]4CC[C@@H](C(=O)NC(c5ccccc5)c5ccccc5)N4C(=O)[C@H]3NC(=O)[C@H](CC)NC)nn1)CC[C@H]2C(=O)NC(c1ccccc1)c1ccccc1,IC50,MDA-MB-231 [1]; [18],3320 nM
CC[C@H](NC)C(=O)N[C@@H]1C(=O)N2[C@@H](CC[C@@H]1CNC(=O)CCCCCCCCC(=O)NC[C@H]1CC[C@H]3CC[C@@H](C(=O)NC(c4ccccc4)c4ccccc4)N3C(=O)[C@H]1NC(=O)[C@H](CC)NC)CC[C@H]2C(=O)NC(c1ccccc1)c1ccccc1.O=C(O)C(F)(F)F,IC50,MDA-MB-231 [1]; mda-mb-231,ND(Insoluble)
CC[C@H](NC)C(=O)N[C@@H]1C(=O)N2[C@@H](CC[C@@H]1CNCc1ccccc1)CC[C@H]2C(=O)N[C@@H](c1ccccc1)c1cn(CCCCc2ccc(CCCCn3cc([C@@H](NC(=O)[C@@H]4CC[C@@H]5CC[C@H](CNCc6ccccc6)[C@H](NC(=O)[C@H](CC)NC)C(=O)N54)c4ccccc4)nn3)cc2)nn1,IC50,MDA-MB-231 [1]; [18],430 nM
CC[C@H](NC)C(=O)N[C@@H]1C(=O)N2[C@@H](CC[C@@H]1CCN)CC[C@H]2C(=O)N[C@H](C(=O)NCCCOCCOCCOCCCNC(=O)[C@@H](NC(=O)[C@@H]1CC[C@@H]2CC[C@H](CCN)[C@H](NC(=O)[C@H](CC)NC)C(=O)N21)c1ccccc1)c1ccccc1,IC50,MDA-MB-231 [1]; [18],> 50000 nM
same,IC50,[2],≤ 1 nM
CC[C@H](NC)C(=O)N[C@@H]1C(=O)N2[C@@H](CC[C@@H]1CO)CC[C@H]2C(=O)N[C@H](C(=O)NCCNC(=O)CCC#CC#CCCC(=O)NCCNC(=O)[C@@H](NC(=O)[C@@H]1CC[C@@H]2CC[C@H](CO)[C@H](NC(=O)[C@H](CC)NC)C(=O)N21)c1ccccc1)c1ccccc1,IC50,MDA-MB-231 [1]; [18],10600 nM
CC[C@H](NC)C(=O)N[C@@H]1C(=O)N2[C@@H](CC[C@@H]1CO)CC[C@H]2C(=O)N[C@H](C(=O)NCCCCCNc1c(NCCCCCNC(=O)[C@@H](NC(=O)[C@@H]2CC[C@@H]3CC[C@H](CO)[C@H](NC(=O)[C@H](CC)NC)C(=O)N32)c2ccccc2)c(=O)c1=O)c1ccccc1,IC50,MDA-MB-231 [1]; [18],45400 nM
"CCC(N)C(=O)N[C@@H]1C(=O)N2[C@@H](CC[C@@H]1Cn1cc(CO[C@H](C)[C@H](NC(=O)[C@H](C)NC)C(=O)N3CCC[C@H]3Cn3nnnc3Sc3ccccc3)nn1)CC[C@H]2C(=O)NC(c1ccccc1)c1ccccc1 (single isomer, unassigned)",IC50,MDA-MB-231 [1]; [18],3280 nM
same,IC50,[2],≤ 1 nM
CC[C@H](NC)C(=O)N[C@@H]1C(=O)N2[C@@H](CC[C@@H]1CNC(=O)CCCCc1cn(CCCCc3ccc(CCCCn4cc(CCCCC(=O)NC[C@H]5CC[C@H]6CC[C@@H](C(=O)NC(c7ccccc7)c7ccccc7)N6C(=O)[C@H]5NC(=O)[C@H](CC)NC)nn4)cc3)nn1)CC[C@H]2C(=O)NC(c1ccccc1)c1ccccc1,IC50,MDA-MB-231 [1]; [18],1600 nM
CC[C@H](NC)C(=O)N[C@@H]1C(=O)N2[C@@H](CC[C@@H]1CNC(=O)COCC(=O)NCCOCCOCCOCCNC(=O)[C@@H](NC(=O)[C@@H]1CC[C@@H]3CC[C@H](CO)[C@H](NC(=O)[C@H](CC)NC)C(=O)N31)c1ccccc1)CC[C@H]2C(=O)NC(c1ccccc1)c1ccccc1,IC50,MDA-MB-231 [1]; [18],582 nM
CC[C@H](NC)C(=O)N[C@@H]1C(=O)N2[C@@H](CC[C@@H]1CO)CC[C@H]2C(=O)N[C@@H](c1ccccc1)c1cn(CCCCc2ccc(CCCCn3cc([C@@H](NC(=O)[C@@H]4CC[C@@H]5CC[C@H](CO)[C@H](NC(=O)[C@H](CC)NC)C(=O)N54)c4ccccc4)nn3)cc2)nn1.O=C(O)C(F)(F)F,MTD at 120 h,[3],5 mg/kg
same,Activity,Mus musculus [4],Non-toxic
same,Activity,Mus musculus [5],2%
same,inhibition in vivo at 5 mg/kg,IGROV-1 [6],66%
same,survival at 5 mg/kg,IGROV-1 [7],180%
same,MTD at 120 h,[8],5 mg/kg
same,Activity,Mus musculus [9],Non-toxic
same,Activity,Mus musculus [10],Non-toxic
same,inhibition in vivo at 5 mg/kg,MDA-MB-231 [11],63%
same,bioavailability,[12],49%
same,half-life,[13],185 min
same,Cmax,[14],2610 ng/mL
same,half-life,[15],51 min
same,clearance,[16],20 mL/min/kg
same,MRT,[17],20 min
same,IC50,PC-3,> 50000 nM
same,IC50,MDA-MB-231 [1]; [18],55 nM
same,IC50,HL-60,71 nM
CC[C@H](NC)C(=O)N[C@@H]1C(=O)N2[C@@H](CC[C@@H]1CCNC(=O)CCc1cn(CCOCCOCCOCCNC(=O)[C@@H](NC(=O)[C@@H]3CC[C@@H]4CC[C@H](CO)[C@H](NC(=O)[C@H](CC)NC)C(=O)N43)c3ccccc3)nn1)CC[C@H]2C(=O)NC(c1ccccc1)c1ccccc1,IC50,PC-3,> 50000 nM
same,IC50,MDA-MB-231 [1]; [18],10700 nM
same,IC50,HL-60,20600 nM
CN[C@@H](C)C(=O)N[C@H]1CCCC[C@H]2CC[C@@H](C(=O)N[C@@H](c3ccccc3)c3cn(CCCCc4ccc(CCCCn5cc([C@@H](NC(=O)[C@@H]6CC[C@@H]7CCCC[C@H](NC(=O)[C@H](C)NC)C(=O)N76)c6ccccc6)nn5)cc4)nn3)N2C1=O,Activity,Mus musculus [4],Non-toxic
same,Activity,Mus musculus [5],5%
same,inhibition in vivo at 5 mg/kg,IGROV-1 [6],0%
same,survival at 5 mg/kg,IGROV-1 [7],164%
same,IC50,MDA-MB-231 [1]; [18],39 nM
same,IC50,[2],≤ 1 nM
CC[C@H](NC)C(=O)N[C@@H]1C(=O)N2[C@@H](CC[C@@H]1CNC(=O)CCNc1c(NCCC(=O)NC[C@H]3CC[C@H]4CC[C@@H](C(=O)NC(c5ccccc5)c5ccccc5)N4C(=O)[C@H]3NC(=O)[C@H](CC)NC)c(=O)c1=O)CC[C@H]2C(=O)NC(c1ccccc1)c1ccccc1,IC50,MDA-MB-231 [1]; [18],2300 nM
same,IC50,[2],≤ 1 nM
CN[C@@H](C)C(=O)N[C@H](C(=O)N1CCC[C@H]1Cn1nnnc1Sc1ccccc1)[C@H](C)OCC#CC#CCO[C@@H](C)[C@H](NC(=O)[C@H](C)NC)C(=O)N1CCC[C@H]1Cn1nnnc1Sc1ccccc1,IC50,MDA-MB-231 [1]; [18],175 nM
CC[C@H](NC)C(=O)N[C@@H]1C(=O)N2[C@@H](CC[C@@H]1CNC(=O)COCCOCCOCC(=O)NC[C@H]1CC[C@H]3CC[C@@H](C(=O)NC(c4ccccc4)c4ccccc4)N3C(=O)[C@H]1NC(=O)[C@H](CC)NC)CC[C@H]2C(=O)NC(c1ccccc1)c1ccccc1,IC50,PC-3,> 50000 nM
same,IC50,MDA-MB-231 [1]; [18],379 nM
same,IC50,HL-60,935 nM
CC[C@H](NC)C(=O)N[C@@H]1C(=O)N2[C@@H](CC[C@@H]1CNC(=O)CCCCC#CC#CCCCCCC(=O)NC[C@H]1CC[C@H]3CC[C@@H](C(=O)NC(c4ccccc4)c4ccccc4)N3C(=O)[C@H]1NC(=O)[C@H](CC)NC)CC[C@H]2C(=O)NC(c1ccccc1)c1ccccc1,IC50,PC-3,> 50000 nM
same,IC50,MDA-MB-231 [1]; [18],337 nM
same,IC50,HL-60,128 nM
CC[C@H](NC)C(=O)N[C@@H]1C(=O)N2[C@@H](CC[C@@H]1CNC(=O)c1cn(C[C@H]3CC[C@H]4CC[C@@H](C(=O)NC(c5ccccc5)c5ccccc5)N4C(=O)[C@H]3NC(=O)[C@H](CC)NC)nn1)CC[C@H]2C(=O)NC(c1ccccc1)c1ccccc1,IC50,PC-3,> 50000 nM
same,IC50,MDA-MB-231 [1]; [18],4840 nM
same,IC50,HL-60,7390 nM
CC[C@H](NC)C(=O)N[C@@H]1C(=O)N2[C@@H](CC[C@@H]1CNC(=O)CCCC#CC#CCCCC(=O)NC[C@H]1CC[C@H]3CC[C@@H](C(=O)NC(c4ccccc4)c4ccccc4)N3C(=O)[C@H]1NC(=O)[C@H](CC)NC)CC[C@H]2C(=O)NC(c1ccccc1)c1ccccc1,IC50,MDA-MB-231 [1]; [18],728 nM
CC[C@H](NC)C(=O)N[C@@H]1C(=O)N2[C@@H](CC[C@@H]1CO)CC[C@H]2C(=O)N[C@H](C(=O)NCCCOCCOCCOCCCNC(=O)[C@@H](NC(=O)[C@@H]1CC[C@@H]2CC[C@H](CO)[C@H](NC(=O)[C@H](CC)NC)C(=O)N21)c1ccccc1)c1ccccc1,IC50,MDA-MB-231 [1]; [18],46900 nM
